# Experimental data from US9120815B2, “Solid state forms of macrocyclic kinase inhibitors” (Tragara Pharmaceuticals, Inc., priority 2010, dated 2015).
# Read-outs that look alike come from different tables or passages of the source.
# Key:
# JAK V617F = JAK V617F (Homo sapiens, UniProt O60674, V617F); conditions: in vitro; cited from earlier work
# FLT3 = target: T1, FLT3 (Homo sapiens, UniProt P36888); conditions: in vitro; cited from earlier work
# T1 sequence (P36888 27-993): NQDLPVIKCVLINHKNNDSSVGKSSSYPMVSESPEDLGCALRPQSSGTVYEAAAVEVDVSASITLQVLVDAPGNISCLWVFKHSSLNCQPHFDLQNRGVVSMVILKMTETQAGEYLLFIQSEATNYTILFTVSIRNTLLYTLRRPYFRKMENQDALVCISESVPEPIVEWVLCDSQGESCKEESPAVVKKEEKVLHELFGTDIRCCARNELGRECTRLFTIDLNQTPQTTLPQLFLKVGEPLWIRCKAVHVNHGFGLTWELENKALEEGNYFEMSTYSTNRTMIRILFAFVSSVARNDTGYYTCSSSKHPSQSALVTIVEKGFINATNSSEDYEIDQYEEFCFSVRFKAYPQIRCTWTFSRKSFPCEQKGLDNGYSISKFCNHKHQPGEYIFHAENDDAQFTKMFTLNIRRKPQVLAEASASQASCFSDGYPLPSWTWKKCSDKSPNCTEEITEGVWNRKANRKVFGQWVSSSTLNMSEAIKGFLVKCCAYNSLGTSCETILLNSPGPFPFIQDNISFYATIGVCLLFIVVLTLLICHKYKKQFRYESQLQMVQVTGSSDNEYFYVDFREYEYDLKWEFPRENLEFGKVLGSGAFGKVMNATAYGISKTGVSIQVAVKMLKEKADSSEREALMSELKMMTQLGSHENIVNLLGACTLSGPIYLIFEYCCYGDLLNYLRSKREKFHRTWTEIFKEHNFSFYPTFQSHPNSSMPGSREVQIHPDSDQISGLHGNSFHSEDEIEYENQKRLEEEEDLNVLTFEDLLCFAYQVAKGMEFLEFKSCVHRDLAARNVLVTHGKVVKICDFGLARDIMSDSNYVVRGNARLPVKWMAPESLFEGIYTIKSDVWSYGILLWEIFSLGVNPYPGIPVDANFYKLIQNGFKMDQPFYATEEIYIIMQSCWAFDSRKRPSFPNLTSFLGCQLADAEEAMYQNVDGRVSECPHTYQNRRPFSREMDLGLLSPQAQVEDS
# Colo205 = Colo205 cell line; cited from earlier work
# DU145 = DU145 cell line; cited from earlier work
# HL60 = HL60 cell line; cited from earlier work
# [1] = Stability in humidity chamber 40° C./75% R.H. (XRPD, HPLC); assay type: physicochemical
# Description: After 2 days, the solids were isolated by filtration under vacuum at RT to be characterised by XRPD analysis. Each new crystalline solid phase detected was characterised by ^1H NMR and TGA-DSC analyses in order to determine if salt formation had occurred and whether the material was a solvate. At this stage, each salt identified was then analysed by HPLC to determine the chemical purity prior to being stored in the humidity chamber (40° C./75% R.H.) to assess its stability.
# [2] = Thermodynamic aqueous solubility; assay type: physicochemical; conditions: for solubility at 24 h: 25 °C, thermodynamic from solid; for solubility at 24 h / aqueous solubility: water; for final pH: pH of the aqueous suspension after equilibration; for aqueous solubility: 25° C., 24 hours
# Description: Aqueous solubility was determined by suspending sufficient compound in water to give a maximum final concentration of 210 mg·ml^−1 of the parent free-form of the compound. The suspension was equilibrated at 25° C. for 24 hours then the pH was measured. The suspension was then filtered through a glass fibre C filter into a 96 well plate. The filtrate was then diluted by a factor of 101. Quantitation was by HPLC with reference to a standard solution of approximately 0.1 mg·ml^−1. in DMSO. Different volumes of the standard, diluted and undiluted sample solutions were injected. The solubility was calculated using the peak areas determined by integration of the peak found at the same retention time as the principal peak in the standard injection.
# Analysis was performed on an Agilent HP1 100 series system equipped with a diode array detector and using ChemStation software vB.02.01-SR1.
# HEL92.1.7 = HEL92.1.7 cell line; cited from earlier work
# MV4-11 = MV4-11 cell line; cited from earlier work
# [3] = Gravimetric Vapour Sorption (GVS) at 25° C.; assay type: physicochemical
# Description: Sorption isotherms were obtained using a SMS DVS Intrinsic moisture sorption analyser, controlled by SMS Analysis Suite software. The sample temperature was maintained at 25° C. by the instrument controls. The humidity was controlled by mixing streams of dry and wet nitrogen, with a total flow rate of 200 ml.min^−1. The relative humidity was measured by a calibrated Rotronic probe (dynamic range of 1.0-100% RH), located near the sample. The weight change, (mass relaxation) of the sample as a function of % RH was constantly monitored by the microbalance (accuracy ±0.005 mg). Typically 5-20 mg of sample was placed in a tared mesh stainless steel basket under ambient conditions. The sample was loaded and unloaded at 40% RH and 25° C. (typical room conditions). A moisture sorption isotherm was performed as outlined below (2 scans giving 1 complete cycle). The standard isotherm was performed at 25° C. at 10% RH intervals over a 0.5-90% RH range. The sample was recovered after completion of the isotherm and re-analysed by XRPD.
# JAK2 = JAK2 (Homo sapiens, UniProt O60674); conditions: in vitro; cited from earlier work
# [4] = Log P determination by potentiometric titration; assay type: physicochemical
# Source text: Data were collected by potentiometric titration on a Sirius GlpKa instrument using three ratios of octanol:ionic-strength adjusted (ISA) water to generate Log P, Log Pion, and Log D values. The data were refined using Refinement Pro software v2.2. Prediction of Log P values was made using ACD v12 software.
# [5] = Polymorph screen: maturation in solvents, XRPD; assay type: physicochemical; conditions: for XPRD Characterisation after maturation: 3 days
# Description: An initial polymorphism screen was performed for the fumarate and citrate salts using 10 common class II and III organic solvents (with and without addition of water), plus pure water. […] The samples were subjected to a series of heat/cool cycles (room temp […], 8 hour cycles). After 3 days, the samples were filtered and the solids were characterised by XRPD analysis.
# [6] = Stability study: rate of hydration of anhydrous polymorph in methocel/Tween 80 test medium, XRPD; assay type: physicochemical; conditions: no seeds
# Description: Test medium was prepared by dissolving methocel (4 g) in water (196 mL) to afford a 2% (w/w) solution. After stirring for 12 hours to ensure a homogenous solution is obtained, Tween 80 (800 mg) and water (600 mL) was added and the mixture stirred for an additional 12 hours to homogenise.
# Test medium (30 mL) was added and each sample was maturated at the indicated temperature and condition (−20° C., 4° C., room temperature with stirring and room temperature without stirring). […] The samples were monitored over time by XRPD to determine the rate of hydration of the anhydrous polymorph.
# Test medium (5 mL) was added and each sample was maturated at the indicated temperature and condition (−20° C., 4° C., room temperature with stirring and room temperature without stirring). […] The samples were monitored over time by XRPD to determine the rate of hydration of the anhydrous polymorph.
# [7] = Solid state stability at ambient conditions; assay type: physicochemical
# [8] = listed as Fumiarate Pattern 2, fumarate
# Sequence of JAK2 (O60674 whole entry): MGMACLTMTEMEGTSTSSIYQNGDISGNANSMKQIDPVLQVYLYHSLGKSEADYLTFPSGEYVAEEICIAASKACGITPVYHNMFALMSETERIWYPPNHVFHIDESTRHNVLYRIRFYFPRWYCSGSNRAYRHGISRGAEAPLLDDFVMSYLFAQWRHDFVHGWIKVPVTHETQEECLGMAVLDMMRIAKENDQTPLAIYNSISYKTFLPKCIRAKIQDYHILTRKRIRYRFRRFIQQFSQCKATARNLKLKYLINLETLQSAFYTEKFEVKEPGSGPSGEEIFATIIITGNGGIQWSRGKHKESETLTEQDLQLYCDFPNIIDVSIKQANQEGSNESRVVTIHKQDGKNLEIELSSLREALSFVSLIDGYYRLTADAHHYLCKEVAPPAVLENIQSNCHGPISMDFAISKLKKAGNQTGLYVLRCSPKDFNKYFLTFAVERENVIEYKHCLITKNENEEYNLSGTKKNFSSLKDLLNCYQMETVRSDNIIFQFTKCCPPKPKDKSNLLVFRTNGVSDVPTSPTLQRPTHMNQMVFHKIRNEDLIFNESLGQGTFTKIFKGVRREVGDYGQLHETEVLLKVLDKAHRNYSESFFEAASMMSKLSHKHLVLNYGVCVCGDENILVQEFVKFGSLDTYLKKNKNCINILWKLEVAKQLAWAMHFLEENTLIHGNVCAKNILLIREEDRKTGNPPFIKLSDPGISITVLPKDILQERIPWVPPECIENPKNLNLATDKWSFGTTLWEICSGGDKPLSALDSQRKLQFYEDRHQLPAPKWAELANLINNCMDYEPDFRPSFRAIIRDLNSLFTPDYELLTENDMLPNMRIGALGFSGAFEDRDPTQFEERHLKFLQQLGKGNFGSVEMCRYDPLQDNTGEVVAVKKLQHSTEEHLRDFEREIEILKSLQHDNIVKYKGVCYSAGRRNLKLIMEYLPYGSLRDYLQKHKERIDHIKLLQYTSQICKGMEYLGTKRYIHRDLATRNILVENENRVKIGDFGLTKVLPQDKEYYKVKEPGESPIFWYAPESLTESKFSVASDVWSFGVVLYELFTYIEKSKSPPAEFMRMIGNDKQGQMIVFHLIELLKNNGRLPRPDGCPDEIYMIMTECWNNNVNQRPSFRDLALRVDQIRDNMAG
# Sequence of JAK V617F (O60674 whole entry V617F): as the sequence (O60674 whole entry) above, with V617F counted along it
smiles,measurement,setting,value
"CN1C/C=C/CCOc2cccc(c2)-c2ccnc(n2)Nc2cccc(c2)C1 [Compound I, 14-methyl-20-oxa-5,7,14,27-tetraazatetracyclo-[19.3.1.12,6.18,12]heptacosa-1(25),2,4,6,8,10,12(26),16,21,23-decaene]",IC50,JAK V617F,< 1 µM
same,IC50,FLT3,< 1 µM
same,GI50,Colo205,< 1 µM
same,GI50,DU145,< 1 µM
same,GI50,HL60,< 1 µM
same,XRPD stability (40° C./75% R.H.),[1]; 6 weeks,No changes were observed in the humidity
same,HPLC Purity post stability (40° C./75% R.H.),[1]; after 6 weeks in the humidity chamber,purity of Compound I was measured at 97.0% area
same,solubility at 24 h,[2],< 0.001 mg/mL
same,final pH,[2],8.9
same,aqueous solubility,[2],< 0.001 mg/mL
same,GI50,HEL92.1.7,< 1 µM
same,GI50,MV4-11,< 1 µM
same,changes in the XRPD pattern after the GVS experiment,[3],between 0 and 90% relative humidity. No
same,hydration phenomenon in GVS,[3],GVS analysis was carried out at 25 °C No
same,IC50,JAK2,< 1 µM
same,logD,"[4]; octanol/ionic-strength adjusted (ISA) water, pH 7.4, read-out: Measured LogD7.4",3.34
same,logP,"[4]; octanol/ionic-strength adjusted (ISA) water, octanol:ISA water, read-out: Measured LogP",4.72
same,Measured LogPion,[4]; octanol:ISA water,1.14
"CN1CC=CCCOc2cccc(c2)C2=CC=NC(=Nc3cccc(c3)C1)N2.O=C(O)/C=C/C(=O)O [Fumarate Pattern 2, 14-methyl-20-oxa-5,7,14,27-tetraazatetracyclo-[19.3.1.12,6.18,12]heptacosa-1(25),2,4,6,8,10,12(26),16,21,23-decaene fumarate]",XPRD Characterisation after maturation,"[5]; Acetone, w/ water (5% v/v)",Fumarate Pattern 2
same,XPRD Characterisation after maturation,"[5]; Acetone, w/o water",Fumarate Pattern 2
same,XPRD Characterisation after maturation,"[5]; Acetonitrile, w/ water (5% v/v)",Fumarate Pattern 2
same,XPRD Characterisation after maturation,"[5]; Acetonitrile, w/o water",Fumarate Pattern 2
same,XPRD Characterisation after maturation,"[5]; DCM, w/ water (5% v/v)",Fumarate Pattern 2
same,XPRD Characterisation after maturation,"[5]; DCM, w/o water, RT-50° C. cycles",Fumarate Pattern 2
same,XPRD Characterisation after maturation,"[5]; EtOH, w/ water (5% v/v)",Fumarate Pattern 2
same,XPRD Characterisation after maturation,"[5]; EtOH, w/o water",Fumarate Pattern 2
same,XPRD Characterisation after maturation,"[5]; Ethyl acetate, w/ water (5% v/v)",Fumarate Pattern 1
same,XPRD Characterisation after maturation,"[5]; Ethyl acetate, w/o water",Fumarate Pattern 2
same,XPRD Characterisation after maturation,"[5]; IPA, w/ water (5% v/v)",Fumarate Pattern 2
same,XPRD Characterisation after maturation,"[5]; IPA, w/o water",Fumarate Pattern 2
same,XPRD Characterisation after maturation,"[5]; TBME, w/ water (5% v/v)",Fumarate Pattern 1
same,XPRD Characterisation after maturation,"[5]; TBME, w/o water",Fumarate Pattern 2
same,XPRD Characterisation after maturation,"[5]; THF, w/ water (5% v/v)",Fumarate Pattern 2
same,XPRD Characterisation after maturation,"[5]; THF, w/o water",Fumarate Pattern 2
same,XPRD Characterisation after maturation,"[5]; Toluene, w/ water (5% v/v)",Fumarate Pattern 1
same,XPRD Characterisation after maturation,"[5]; Toluene, w/o water",Fumarate Pattern 2
same,transformation after 3 days of maturation in dried solvents,[5]; dried solvents,No transformation
same,XPRD Characterisation after maturation,"[5]; nitromethane, w/ water (5% v/v)",Fumarate Pattern 2
same,XPRD Characterisation after maturation,"[5]; nitromethane, w/o water",Fumarate Pattern 2
same,XPRD Characterisation after maturation,[5]; pure water,Fumarate Pattern 1
same,Time points where transformation was observed,"[6]; 1 mg/mL, 4° C.",120 h
same,Time points where transformation was observed,"[6]; 1 mg/mL, 20-25° C. (under stirring)",24 h
same,Time points where transformation was observed,"[6]; 1 mg/mL, 20-25° C. (without stirring)",48 h
same,Time points where transformation was observed,"[6]; 1 mg/mL, −20° C.",120 h
same,Time points where transformation was observed,"[6]; 10 mg/mL, 4° C.",No
same,Time points where transformation was observed,"[6]; 10 mg/mL, 20-25° C. (under stirring)",48 h
same,Time points where transformation was observed,"[6]; 10 mg/mL, 20-25° C. (without stirring)",120 h
same,Time points where transformation was observed,"[6]; 10 mg/mL, −20° C.",No
same,XPRD stability after 40° C./75% RH 2 weeks,[1]; fumarate,not sensitive to humidity
same,XPRD stability after 40° C./75% RH 2 weeks,"[1]; listed as Fumarate pattern 2, fumarate",no transformation
same,XPRD stability after 40° C./75% RH 2 weeks,"[1]; listed as Fumareate pattern 2, fumarate",No change
same,XPRD stability after 40° C./75% RH 2 weeks,[1]; [8],"crystallinity, and no change was observed after"
same,solubility at 24 h,[2],0.029 mg/mL
same,final pH,[2],3.80
same,aqueous solubility,[2],0.029 mg/mL
same,stability in the solid state,[7],stable
same,changes in the XRPD pattern after the GVS experiment,[3]; fumarate,no transformation
same,changes in the XRPD pattern after the GVS experiment,[3]; [8],between 0 and 90% relative humidity. No
